Source: article PMC9573696, “Experimental Examination of Solubility and Lipophilicity as Pharmaceutically Relevant Points of Novel Bioactive Hybrid Compounds” (Molecules, 2022)
≈ marks a conversion by molar mass, not a printed value.

How the values were obtained:
Assay in all cases: In vitro antifungal activity, microbroth dilution (MIC)
Type in all cases: cell-based
C. glabrata 61L = conditions: Nakaseomyces glabratus; C. glabrata 61L; 35 °C, 24 h; read-out: MIC
Experimental: (§1) The in vitro antifungal screening results of synthesized compounds was evaluated against three fungal strains: C. parapsilosis ATCC 22019, C. utilis 84, and C. glabrata 61L are summarized in Table 1.
(§2) The in vitro antifungal activity of the target compounds was measured by means of the minimal inhibitory concentrations (MIC) with fluconazole as the control drug. Procedure was carried out by the microbroth dilution method in 96-well plates according to the recommendations of the Clinical and Laboratory Standards Institute. The detailed information was reported previously. The investigated pathogenic species included C. parapsilosis ATCC 22019, C. utilis 84 and C. glabrata 61. The sensitivity was evaluated visually, after the incubation at 35 °C for 24 h and the value was compared with the growth density in the reference culture without the sample. Each test was conducted in triplicate.

C. utilis 84 = conditions: Williopsis jadinii; C. utilis 84; 35 °C, 24 h; read-out: MIC
Experimental: as §1, §2

[1] = test system: C. parapsilosis ATCC 22019; conditions: Lodderomyces parapsilosis, ATCC22019; C. parapsilosis ATCC 22019; 35 °C, 24 h; read-out: MIC
Experimental: as §1, §2

For OC(Cn1cncn1)(Cn1cncn1)c1ccc(F)cc1F [Fluconazole, reference compound], the MIC (C. glabrata 61L) was 8 µg/mL (≈ 26.1 µM), the MIC (C. utilis 84) was 2 µg/mL (≈ 6.53 µM) and the MIC [1] was 2 µg/mL (≈ 6.53 µM).
